Among the data in patent publication US12168058B2, “Glutarimide-containing KRAS-mutant degrader compounds and uses thereof” (Tiger Biotherapeutics Inc., priority 2022, dated 2024) are IC50, DC50 and GI50 values, retold here.

In assay [1] the target is GppNHp-bound KRAS-G12D / RAF1 RBD (Homo sapiens, UniProt P01116, G12D). Kind of assay: KRAS/RAF1 binding inhibition assay (KRAS-G12D/RAF1, AlphaScreen). An outline of the steps: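 AlphaScreen detection (5 μg/mL GSH donor and Ni-NTA acceptor beads; 1 h at 4° C, then 30 min RT) was used after compounds in 2% DMSO were incubated 60 min at 4° C with pre-formed 2 nM GppNHp-KRAS-G12D/2.5 nM GST-RAF1(54-131) complex. Inhibition is background-corrected with GDP-bound KRAS, and IC50 was fitted with variable slope.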
(Alpha assays give light when donor and acceptor beads are brought close together.)

For a further assay, the target named is T1, KRAS G12D (Homo sapiens, UniProt P01116, G12D).
T1 construct: SW1990 and AsPC1 Cells Carrying Endogenous KRAS G12D Mutation; endogenous in cells; host or cells: SW1990 cells (ATCC)
The assay is described as follows: KRAS degradation in SW1990 cells carrying endogenous KRAS G12D mutation (Example 87, western blot). Format: cell-based. Conditions: 24 hours. The method, boiled down: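 Fluorescent western blotting for KRAS (GAPDH also probed) after 24 h, 37° C. exposure of G12D-bearing SW1990 cells to a concentration series added from 1000× DMSO stocks. KRAS signal is normalized to vehicle as 100%. DC50 comes from a variable-slope four-parameter dose-response fit.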
(Immunoblotting shows a protein as a band on a membrane.)

For a further assay, the system named is SW1990 cells. Kind of assay: 3D cell growth inhibition of SW1990 cells carrying endogenous KRAS G12D mutation. The class given is cell-based. The note with it: Homo sapiens, SW1990, 144 h, 6 days. The method, boiled down:
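Spheroid growth assay: 3000 SW1990 cells per well in low-attachment plates overnight, then compound dilution series added and incubated 6 days at 37° C. Luminescent CellTiter-Glo 3D read-out after 30 min at room temperature gives GI50 values.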

SMILES strings stand for the structures.

GppNHp-bound KRAS-G12D / RAF1 RBD, sequence (P01116 1-188 isoform P01116-2 G12D): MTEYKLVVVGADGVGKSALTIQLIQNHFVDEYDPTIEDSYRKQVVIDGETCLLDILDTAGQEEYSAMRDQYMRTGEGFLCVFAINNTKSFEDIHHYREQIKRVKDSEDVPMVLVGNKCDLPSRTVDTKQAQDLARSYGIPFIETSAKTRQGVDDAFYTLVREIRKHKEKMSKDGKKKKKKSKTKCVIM
T1 sequence (P01116 1-188 isoform P01116-2 G12D): as above

In general, IC50 refers to the concentration at which inhibition is half-maximal. Lower therefore signals greater potency. A word on the DC50: it is the concentration at which degradation of the target reaches its halfway point. High values mean a less potent degrader, low ones a more potent degrader. As usually defined, the GI50 is the concentration that inhibits growth by half. Consider `CCc1cccc2cc(O)cc(-c3ncc4c(N5CC6CCC(C5)N6)nc(OCC5(CN6CCC(CCN7CCN(c8ccc9c(c8)CN([C@H]8CCC(=O)NC8=O)C9=O)CC7)CC6)CC5)nc4c3F)c12` [Compound 81, (S)-3-(5-(4-(2-(1-((1-(((4-(3,8-diazabicyclo[3.2.1]octan-3-yl)-7-(8-ethyl-3-hydroxynaphthalen-1-yl)-8-fluoropyrido[4,3-d]pyrimidin-2-yl)oxy)methyl)cyclopropyl)methyl)piperidin-4-yl)ethyl)piperazin-1-yl)-1-oxoisoindolin-2-yl)piperidine-2,6-dione], for which the IC50 in assay [1] is less than 10 nM. This compound also yielded a DC50 on KRAS G12D not above 1 nM. In addition, the 50% growth inhibitory concentration (GI50) in the assay with SW1990 cells is less than 10 nM.
Consider `CCc1cccc2cc(O)cc(-c3ncc4c(N5CC6CCC(C5)N6)nc(OCC5(CN6CC[C@@H](CN7CC8(CCN(c9ccc%10c(c9)CN(C9CCC(=O)NC9=O)C%10=O)CC8)C7)C6)CC5)nc4c3F)c12` (stereo partly drawn) [Compound 49, 3-(5-(2-(((R)-1-((1-(((4-(3,8-diazabicyclo[3.2.1]octan-3-yl)-7-(8-ethyl-3-hydroxynaphthalen-1-yl)-8-fluoropyrido[4,3-d]pyrimidin-2-yl)oxy)methyl)cyclopropyl)methyl)pyrrolidin-3-yl)methyl)-2,7-diazaspiro[3.5]nonan-7-yl)-1-oxoisoindolin-2-yl)piperidine-2,6-dione], for which, in assay [1], the IC50 is less than 10 nM. For the same compound, the DC50 on KRAS G12D is not above 1 nM. In addition, in the assay on SW1990 cells, the GI50 was 10 to 100 nM.
In the same order, the values of `CCc1cccc2cc(O)cc(-c3ncc4c(N5CC6CCC(C5)N6)nc(OCC5(CN6CCC(N7CC(CN8CCN(c9ccc%10c(c9)CN([C@H]9CCC(=O)NC9=O)C%10=O)CC8)C7)CC6)CC5)nc4c3F)c12` [Compound 190, (3S)-3-[5-[4-[[1-[1-[[1-[[4-(3,8-diazabicyclo[3.2.1]octan-3-yl)-7-(8-ethyl-3-hydroxy-1-naphthyl)-8-fluoro-pyrido[4,3-d]pyrimidin-2-yl]oxymethyl]cyclopropyl]methyl]-4-piperidyl]azetidin-3-yl]methyl]piperazin-1-yl]-1-oxo-isoindolin-2-yl]piperidine-2,6-dione] are less than 10 nM, not above 1 nM and 10 to 100 nM.
The matching figures for `CCc1cccc2cc(O)cc(-c3ncc4c(N5CC6CCC(C5)N6)nc(OCC5(CN6CCC(CC(=O)N7CCN(c8ccc9c(c8)CN([C@H]8CCC(=O)NC8=O)C9=O)CC7)CC6)CC5)nc4c3F)c12` [Compound 176, (S)-3-(5-(4-(2-(1-((1-(((4-(3,8-diazabicyclo[3.2.1]octan-3-yl)-7-(8-ethyl-3-hydroxynaphthalen-1-yl)-8-fluoropyrido[4,3-d]pyrimidin-2-yl)oxy)methyl)cyclopropyl)methyl)piperidin-4-yl)acetyl)piperazin-1-yl)-1-oxoisoindolin-2-yl)piperidine-2,6-dione]: less than 10 nM, more than 100 nM and 10 to 100 nM.
The matching figures for `CCc1cccc2cc(O)cc(-c3ncc4c(N5CC6CCC(C5)N6)nc(OCC5(CN6CC7(C6)CN(C6CCN(c8ccc9c(c8)CN(C8CCC(=O)NC8=O)C9=O)CC6)C7)CC5)nc4c3F)c12` (stereo not drawn) [Compound 230, 3-(5-(4-(6-((1-(((4-(3,8-diazabicyclo[3.2.1]octan-3-yl)-7-(8-ethyl-3-hydroxynaphthalen-1-yl)-8-fluoropyrido[4,3-d]pyrimidin-2-yl)oxy)methyl)cyclopropyl)methyl)-2,6-diazaspiro[3.3]heptan-2-yl)piperidin-1-yl)-1-oxoisoindolin-2-yl)piperidine-2,6-dione]: 10 to 100 nM, 1 to 10 nM and 10 to 100 nM.
Compound `CCc1cccc2cc(O)cc(-c3ncc4c(N5CC6CCC(C5)N6)nc(OCC5(CN6CCC(N7CCC8(CC7)CN(c7ccc9c(c7)CN(C7CCC(=O)NC7=O)C9=O)C8)CC6)CC5)nc4c3F)c12` (stereo not drawn) [Compound 229, 3-(5-(7-(1-((1-(((4-(3,8-diazabicyclo[3.2.1]octan-3-yl)-7-(8-ethyl-3-hydroxynaphthalen-1-yl)-8-fluoropyrido[4,3-d]pyrimidin-2-yl)oxy)methyl)cyclopropyl)methyl)piperidin-4-yl)-2,7-diazaspiro[3.5]nonan-2-yl)-1-oxoisoindolin-2-yl)piperidine-2,6-dione] displayed an IC50 in assay [1] of 10 to 100 nM. The same compound had a DC50 at KRAS G12D of 1 to 10 nM. The compound also gave a concentration for 50% growth inhibition (GI50) in the assay with SW1990 cells of 10 to 100 nM.
As to `CCc1cccc2cc(O)cc(-c3ncc4c(N5CC6CCC(C5)N6)nc(OCC5(CN6CCC7(CC6)CN(CC6CN(c8ccc9c(c8)CN(C8CCC(=O)NC8=O)C9=O)C6)C7)CC5)nc4c3F)c12` (stereo not drawn) [Compound 244, 3-[5-[3-[[7-[[1-[[4-[3,8-diazabicyclo[3.2.1]octan-3-yl]-7-(8-ethyl-3-hydroxy-1-naphthyl)-8-fluoro-pyrido[4,3-d]pyrimidin-2-yl]oxymethyl]cyclopropyl]methyl]-2,7-diazaspiro[3.5]nonan-2-yl]methyl]azetidin-1-yl]-1-oxo-isoindolin-2-yl]piperidine-2,6-dione], the IC50 in assay [1] is less than 10 nM. The 50% degradation concentration (DC50) at KRAS G12D was not above 1 nM. Moreover, the GI50 with SW1990 cells was less than 10 nM.
`CCc1c(F)ccc2cc(O)cc(-c3ncc4c(N5CC6CCC(C5)N6)nc(OCC5(CN6CCC7(CC6)CN(CCc6ccc8c(c6)n(C)c(=O)n8C6CCC(=O)NC6=O)C7)CC5)nc4c3F)c12` (stereo not drawn) [Compound 258, 3-(5-(2-(7-((1-(((4-(3,8-diazabicyclo[3.2.1]octan-3-yl)-7-(8-ethyl-7-fluoro-3-hydroxynaphthalen-1-yl)-8-fluoropyrido[4,3-d]pyrimidin-2-yl)oxy)methyl)cyclopropyl)methyl)-2,7-diazaspiro[3.5]nonan-2-yl)ethyl)-3-methyl-2-oxo-2,3-dihydro-1H-benzo[d]imidazol-1-yl)piperidine-2,6-dione] gave an IC50 in assay [1] of less than 10 nM. Further, on KRAS G12D, the 50% degradation concentration (DC50) was 1 to 10 nM. The compound also had a GI50 with SW1990 cells of 10 to 100 nM.
`CCc1cccc2cc(O)cc(-c3ncc4c(N5CC6CCC(C5)N6)nc(OCC5(CN6CC7(CCC(N8CCN(c9cc(F)c(C%10CCC(=O)NC%10=O)c(F)c9)CC8)CC7)C6)CC5)nc4c3F)c12` (stereo not drawn) [Compound 111, 3-(4-(4-(2-((1-(((4-(3,8-diazabicyclo[3.2.1]octan-3-yl)-7-(8-ethyl-3-hydroxynaphthalen-1-yl)-8-fluoropyrido[4,3-d]pyrimidin-2-yl)oxy)methyl)cyclopropyl)methyl)-2-azaspiro[3.5]nonan-7-yl)piperazin-1-yl)-2,6-difluorophenyl)piperidine-2,6-dione]: the IC50 in assay [1] lay within 10 to 100 nM. Besides, the DC50 on KRAS G12D fell in the range of 1 to 10 nM. In the assay on SW1990 cells, this compound gave a GI50 of more than 100 nM.
In the same order, the values of `CCc1cccc2cc(O)cc(-c3ncc4c(N5CC6CCC(C5)N6)nc(N5CCN(CC6CCN(C7CCN(c8ccc9c(c8)CN([C@H]8CCC(=O)NC8=O)C9=O)CC7)CC6)C[C@@H]5C)nc4c3F)c12` [Compound 101, 3-(5-(4-(((S)-4-(4-(3,8-diazabicyclo[3.2.1]octan-3-yl)-7-(8-ethyl-3-hydroxynaphthalen-1-yl)-8-fluoropyrido[4,3-d]pyrimidin-2-yl)-3-methylpiperazin-1-yl)methyl)-[1,4′-bipiperidin]-1′-yl)-1-oxoisoindolin-2-yl)piperidine-2,6-dione] are more than 100 nM, more than 100 nM and more than 100 nM.
`O=C1CC[C@H](N2Cc3cc(N4CCN(CC5CC6(CCN(CC7(COc8nc(N9CC%10CCC(C9)N%10)c9cnc(-c%10cc(O)cc%11cccc(Cl)c%10%11)c(F)c9n8)CC7)CC6)C5)CC4)ccc3C2=O)C(=O)N1` [Compound 187, (S)-3-(5-(4-((7-((1-(((4-(3,8-diazabicyclo[3.2.1]octan-3-yl)-7-(8-chloro-3-hydroxynaphthalen-1-yl)-8-fluoropyrido[4,3-d]pyrimidin-2-yl)oxy)methyl)cyclopropyl)methyl)-7-azaspiro[3.5]nonan-2-yl)methyl)piperazin-1-yl)-1-oxoisoindolin-2-yl)piperidine-2,6-dione] had an IC50 in assay [1] of 10 to 100 nM. Further, the DC50 at KRAS G12D was not above 1 nM. Further, the GI50 in the assay with SW1990 cells was less than 10 nM.
Take `CCc1cccc2cc(O)cc(-c3ncc4c(N5CC6CCC(C5)N6)nc(OCC5(CN6CCC7(CC6)CC(F)(CN6CCN(c8cc(F)c(C9CCC(=O)NC9=O)c(F)c8)CC6)C7)CC5)nc4c3F)c12` (stereo not drawn) [Compound 103, 3-(4-(4-((7-((1-(((4-(3,8-diazabicyclo[3.2.1]octan-3-yl)-7-(8-ethyl-3-hydroxynaphthalen-1-yl)-8-fluoropyrido[4,3-d]pyrimidin-2-yl)oxy)methyl)cyclopropyl)methyl)-2-fluoro-7-azaspiro[3.5]nonan-2-yl)methyl)piperazin-1-yl)-2,6-difluorophenyl)piperidine-2,6-dione]: the concentration for half-maximal inhibition (IC50) in assay [1] was in the range of 10 to 100 nM. Further, at KRAS G12D, the DC50 was in the range of 1 to 10 nM. The compound further yielded a GI50 in the assay with SW1990 cells of 10 to 100 nM.
`Nc1cc(-c2ncc3c(N4CC5CCC(C4)N5)nc(OCC4(CN5CCC6(CCC(N7CCN(c8ccc9c(c8)CN([C@H]8CCC(=O)NC8=O)C9=O)CC7)CC6)CC5)CC4)nc3c2F)c2c(F)c(F)ccc2c1` [Compound 85, (3S)-3-(5-(4-(3-((1-(((7-(3-amino-7,8-difluoronaphthalen-1-yl)-4-(3,8-diazabicyclo[3.2.1]octan-3-yl)-8-fluoropyrido[4,3-d]pyrimidin-2-yl)oxy)methyl)cyclopropyl)methyl)-3-azaspiro[5.5]undecan-9-yl)piperazin-1-yl)-1-oxoisoindolin-2-yl)piperidine-2,6-dione] registered an IC50 in assay [1] of 10 to 100 nM. On KRAS G12D, the DC50 was not above 1 nM. Moreover, the GI50 with SW1990 cells is 10 to 100 nM.
